Measurements taken from patent US20240109914A1, “IMIDAZOTHIAZOLE COMPOUNDS AND ANALOGS THEREOF AND METHODS FOR TREATING NEMATODE INFECTIONS IN PLANTS” (The Governing Council of The University of Toronto, priority 2021, published 2024).
Read-outs that look alike come from different tables or passages of the source.

Tests used:
[1] = system: M. incognita J2 larvae; test: Meloidogyne incognita in vitro larval mobility assay; format: in vivo; conditions: for Replicate 1 z-score / Replicate 2 z-score: z-score vs untreated DMSO wells; for pest or weed control at 45 µM: Meloidogyne incognita, 96 h
Protocol: M. incognita (Kofoid & White) Chitwood Race 1 (originally isolated in Maryland) was used for all experiments, and was maintained on pepper (Capsicum annuum L.) cv. PA-136 in a greenhouse as previously described^44. Infective J2 juveniles were collected as described in ref. 45. The microwell dose-response experiments were carried out similarly to previously described protocols^44,46. In brief, 50 μL of deionized water was added to the wells of 96-well polystyrene plates and 0.5 μL of test compound (or DMSO alone) was added to each well. Approximately 35 J2s were then added to each well in 49.5 μL of deionized water. The chemicals were tested at 45 μM, and the final concentration of DMSO in each well was 0.5% (v/v). DMSO alone was added to 3 separate wells. The plates were covered with plastic adhesive strips, and the lids of the plates were sealed with parafilm. The plates were incubated at 25° C. without shaking for 4 days. The percent of worms that were immobile (% immobile) was quantified by counting the number of immobile worms after 4 days of incubation, dividing the number of immobile worms by the total number of worms in the well, and then multiplying by 100. Two replicates were performed for each treatment. The z-score for each treatment was calculated using the mean and standard deviation of the untreated DMSO control wells. The average % immobile value was calculated across the two replicates. A test compound was considered most promising if the z-score was greater than 1.645 in both replicates.

[2] = system: M. hapla eggs; test: Meloidogyne hapla in vitro egg hatch assay; format: in vivo; conditions: 45 μM; for Number of Hatched Eggs: 8 days at room temperature, about 90 eggs per well, tested once; for Number of Hatched Eggs z-score: 8 days, z-score vs 8 untreated DMSO wells
Protocol: The M. hapla were originally obtained from a soil sample of muck soil from Ste-Clotilde, Quebec, Canada. Using tweezers, egg masses were carefully removed from root material from infested carrot roots. Eggs were liberated from the egg masses using a mild sodium hypochlorite bleaching protocol, whereby egg masses were bleached with a 10% commercial bleach (sodium hypochlorite) solution for 4 minutes with vigorous shaking, and then washed 5 times with deionized water. 50 μL of deionized water was added to each well of two 96-well polystyrene culture plates, and 0.5 μL of chemical (or DMSO alone) was added to each well. Approximately 90 eggs were added to each well in 49.5 ul of deionized water. The plates were sealed with parafilm and incubated for 8 days at room temperature without shaking in a Tupperware box filled with wet paper towels. After the 8-day incubation, the number of hatched eggs was counted for each treatment and for the untreated controls. Each chemical treatment was tested only once. 8 separate untreated DMSO controls were included in the experiment. The z-score for each treatment was calculated using the mean and standard deviation of the untreated DMSO control wells.

[3] = 45 μM, 4 days, average of the two replicates, read-out: Average % Immobile
[4] = 45 μM, 4 days, replicate 1, read-out: Replicate 1 % Immobile
[5] = 45 μM, 4 days, replicate 2, read-out: Replicate 2 % Immobile

SMILES | Replicate 1 z-score ([1]; 45 μM, 4 days, replicate 1) | Replicate 2 z-score ([1]; 45 μM, 4 days, replicate 2) | pest or weed control at 45 µM [1, 3] | pest or weed control at 45 µM [1, 4] | pest or weed control at 45 µM [1, 5] | Number of Hatched Eggs [2] | Number of Hatched Eggs z-score [2] | other results
Cc1cn2cc(-c3ccc(OC(F)F)cc3)nc2s1 [I-54] | [1.73] | [2.15] | 26.4% | 31.1% | 21.7% |  |  | 
Cc1ccc(-c2nc3sccn3c2C=O)cc1 [I-152] | [15.80] | [14.75] |  | 100% | 91.3% |  |  | 
CC(C)NC(=O)N1CC(=O)N(c2cc(Cl)cc(Cl)c2)C1=O [Iprodione, iprodione, reference compound] | [−0.02] | [1.71] | 13.8% | 10.9% | 16.7% | 15 | [−0.33] | 
Cc1nn2cc(-c3ccc(Cl)cc3)nc2s1 [I-158] | [3.12] | [8.51] | 47.4% | 37.9% | 56.8% |  |  | 
Brc1ccc(-c2cn3c(n2)SCC3)cc1 [I-48] | [15.80] | [5.11] | 69% | 100% | 38% | 0 | [4.63] | Number of Hatched Eggs ([2]; listed as 1-48): completely inhibited egg hatching
Brc1nn2cc(-c3ccccc3)nc2s1 [I-159] | [15.34] | [16.33] |  | 97.8% | 100% |  |  | 
Clc1ccc(-c2cn3ccsc3n2)s1 [I-84] | [13.56] | [16.33] | ≥ 75% | 89.1% | 100% | 0 | [4.63] | Number of Hatched Eggs ([2]; listed as 1-84): completely inhibited egg hatching
CNC(=O)O/N=C(\SC)C(=O)N(C)C [Oxamyl, oxamyl, reference compound] | [9.35] | [13.88] |  |  |  | 9 | [1.65] | pest or weed control at 45 µM ([1]; read-out: Average % Immobile): 66.9%; pest or weed control at 45 µM ([1]; read-out: Replicate 1 % Immobile): 67.2%; pest or weed control at 45 µM ([1]; read-out: Replicate 2 % Immobile): 66.7%
FC(F)(F)c1ccc(-c2cn3ccsc3n2)cc1 [I-68] |  |  |  |  |  | 4 | [3.31] | 
Cc1csc(-c2cn3cc(C)sc3n2)c1 [I-161] |  |  |  |  |  | 0 | [4.63] | Number of Hatched Eggs ([2]; listed as 1-161): completely inhibited egg hatching
CCOc1ccc(-c2nc3sccn3c2C=O)cc1 [I-154] | [10.40] | [16.33] | ≥ 75% | 73.6% | 100% | 0 | [4.63] | Number of Hatched Eggs ([2]; listed as 1-154): completely inhibited egg hatching
FC(F)Oc1ccc(-c2cn3ccsc3n2)cc1 [I-63] | [15.80] | [16.33] |  | 100% | 100% | 2 | [3.97] | 
Cc1csc2nc(-c3ccc(OC(F)(F)F)cc3)cn12 [I-62] |  |  |  |  |  | 3 | [3.64] | 
Cc1csc2nc(-c3ccc(OC(F)F)cc3)cn12 [I-64] |  |  |  |  |  | 4 | [3.31] | 
Cc1cn2cc(-c3ccc(N)cc3)nc2s1 [I-132] |  |  |  |  |  | 3 | [3.64] | 
c1ccc2cc(-c3cn4ccsc4n3)ccc2c1 [I-101] |  |  |  |  |  | 2 | [3.97] | 
Fc1ccccc1-c1cn2ccsc2n1 [I-89] | [10.62] | [12.27] | ≥ 75% | 74.7% | 77.6% | 3 | [3.64] | 
O=Cc1c(-c2ccc(Cl)cc2)nc2sccn12 [I-93] | [15.80] | [12.15] | ≥ 75% | 100% | 76.9% |  |  | 
COc1c(-c2cn3ccsc3n2)ccc2ccccc12 [I-81] |  |  |  |  |  | 3 | [3.64] | 

SMILES | Replicate 1 z-score ([1]; 45 μM, 4 days, replicate 1) | Replicate 2 z-score ([1]; 45 μM, 4 days, replicate 2) | pest or weed control at 45 µM [1, 3] | pest or weed control at 45 µM [1, 4] | pest or weed control at 45 µM [1, 5] | Number of Hatched Eggs [2] | Number of Hatched Eggs z-score [2] | other results
Fc1ccc(-c2cn3nc(Br)sc3n2)cc1 [I-113] | [15.80] | [15.32] |  | 100% | 94.4% |  |  | 
FC(F)(F)Oc1ccc(-c2cn3ccsc3n2)cc1 [I-61] | [8.86] | [6.94] | 57.1% | 66% | 48.1% | 1 | [4.30] | 
N#Cc1ccc(-c2cn3ccsc3n2)cc1 [I-87] | [6.98] | [9.68] | 60.1% | 56.9% | 63.3% | 3 | [3.64] | 
COCc1nn2cc(-c3ccc(C)c(C)c3)nc2s1 [I-109] |  |  |  |  |  | 4 | [3.31] | 
COCc1nn2cc(-c3ccc(F)cc3)nc2s1 [I-141] | [1.89] | [4.06] | 32.1% | 31.9% | 32.2% |  |  | 
O=C(O)c1cn2cc(-c3ccccc3)nc2s1 [I-94] |  |  |  |  |  | 4 | [3.31] | 
Cc1sc2nc(-c3ccc(Cl)s3)cn2c1C [I-86] |  |  |  |  |  | 4 | [3.31] | 
Nc1c(-c2ccccc2)nc2sccn12 [I-128] | [11.92] | [13.69] | ≥ 75% | 81% | 85.5% |  |  | 
O=Cc1c(-c2ccc(F)cc2)nc2sccn12 [I-157] | [15.40] | [15.24] |  | 98% | 94% |  |  | 
Cc1cn2cc(-c3ccc(OC(F)(F)F)cc3)nc2s1 [I-53] | [3.33] | [6.79] | 43.1% | 39% | 47.3% |  |  | 
COc1ccc(-c2nc3scc(C)n3c2C=O)cc1 [I-135] |  |  |  |  |  | 4 | [3.31] | 
Cc1csc2nc(-c3ccc(Cl)s3)cn12 [I-85] |  |  |  |  |  | 4 | [3.31] | 
Cc1cn2cc(-c3cccs3)nc2s1 [I-78] |  |  |  |  |  | 3 | [3.64] | 
Nc1c(-c2ccc(Br)cc2)nc2sccn12 [I-118] |  |  |  |  |  | 2 | [3.97] | 
COc1ccc(-c2cn3ccsc3n2)cc1 [I-142] | [2.76] | [1.68] | 27.6% | 36.2% | 19.1% |  |  | 
CCOc1ccc(-c2cn3ccsc3n2)cc1 [I-153] |  |  |  |  |  | 2 | [3.97] | 
CCOC(=O)c1ccc(-c2cn3ccsc3n2)cc1 [I-72] |  |  |  |  |  | 4 | [3.31] | 
CCc1nn2cc(-c3ccc(C)cc3C)nc2s1 [I-129] | [2.18] | [1.78] | 26.5% | 33.3% | 19.6% |  |  | 
COCc1nn2cc(-c3cccc(OC)c3)nc2s1 [I-108] |  |  |  |  |  | 4 | [3.31] | 
